This note sets out measurements from ChEMBL document CHEMBL3751834, “Insight to the binding mode of triazole RGD-peptidomimetics to integrin-rich cancer cells by NMR and molecular modeling” (Bioorg Med Chem, 2016).

The target in assay [1] is T1, Integrin alpha-V/beta-3 (Homo sapiens, UniProt P05106+P06756). Put plainly: Binding affinity to integrin alphavbeta3 receptor in human ECV304 cells by STD-NMR analysis. Conditions: ECV-304. The class given is cell-based.
For assay [2], the target named is T1, Integrin alpha-V/beta-3. Put plainly: Displacement of 125-I-echistatin from human placental integrin alphavbeta3 receptor incubated for 3 hrs by microplate scintillation counting analysis.

Structures are written as SMILES. Activity calls are given as the source filed them. No cut-off for these calls is given here.

On to `O=C(O)C[C@H](NC(=O)Cn1cc(CCCNc2nc3ccccc3[nH]2)nn1)c1ccccc1`, for which the outcome at Integrin alpha-V/beta-3 [1] was Active. On Integrin alpha-V/beta-3 [2], this molecule registered an IC50H of 12 nM and an IC50L of 1120 nM.

As for `O=C(O)C[C@H](NC(=O)Cn1cc(CCCNc2nc3ccccc3[nH]2)nn1)c1ccc(O)cc1`, the outcome at Integrin alpha-V/beta-3 [1] was Active.

In the case of `N=C(N)NCCCc1cn(CC(=O)N[C@@H](CC(=O)O)c2ccccc2)nn1`, the result on Integrin alpha-V/beta-3 [1] was Active.

For `O=C(O)C[C@H](NC(=O)Cn1cc(CCCNc2ccccn2)nn1)c1ccc(O)cc1`, the outcome on Integrin alpha-V/beta-3 [1] was Active. Also, at Integrin alpha-V/beta-3 [2], the IC50 (in general, the concentration that gives 50% inhibition) was 221 nM.

As for `N=C(N)NCCCc1cn(CC(=O)N[C@@H](CC(=O)O)c2ccc(O)cc2)nn1`, the result at Integrin alpha-V/beta-3 [1] was Active.

Consider `O=C(O)C[C@H](NC(=O)Cn1cc(CCCNc2ccccn2)nn1)c1ccccc1`, for which the outcome at Integrin alpha-V/beta-3 [1] was Active. On Integrin alpha-V/beta-3 [2], the IC50H stood at 13 nM and the IC50L came out at 900 nM.
